How the values were obtained:
[1] = Cancer Research 61, 392, 2001; cited from earlier work
MDR cells = details: Cancer Research 61, 392, 2001; cited from earlier work
[2] = tested on: A431, human epidermoid carcinoma cells; assay: Cell cycle analysis (FACS), mitotic arrest in G2/M; assay type: cell-based; details: Homo sapiens, A-431, 24 h, read-out: FACS Assay: concentration required to achieve inhibition in FACS assay
Outline: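 A431 cells, 500,000/well at treatment, exposed to compounds at 0.01–1 μM final (0.1% DMSO) for 24 h. Ethanol-fixed cells RNase-treated (1 μg/ml, 37° C., 15 min), stained with propidium iodide (50 μg/ml, 30 min, RT). DNA ploidy by flow cytometry; mitotic arrest scored as G2/M accumulation.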

bovine tubulin = assay: In vitro tubulin polymerization assay (turbidity at 340 nm); assay type: biochemical; details: 10 μM compound, 30 minute data point, vs 1% DMSO control
Outline: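 Percent inhibition derives from turbidity (340 nm) at 30 min relative to 1% DMSO controls, read every minute at 37° C. Polymerization mix: 3 mg/ml bovine tubulin, <3% MAPs, in PIPES pH 7 G-PEM with 1 mM GTP, 1 mM MgCl2, 5% glycerol; enhancers also detectable.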

[3] = tested on: A431 human cancer cell line; assay: Sulphorhodamine B (SRB) growth inhibition assay; assay type: cell-based; details: A-431, A431 cells, 48 hours, read-out: SRB Assay: μM required to inhibit tumor cell growth by 50% (GI50)
Outline: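 A431 cells were seeded at 10,000 cells/well and preincubated 24 h, then exposed for 48 h at 37 °C, 5% CO2 to five log doses from 100 μM to 0.01 μM (final). After TCA fixation, SRB-stained protein was read at 515 nm. Percent growth was set against time-zero and DMSO control OD, and GI50 was taken at the 50% intercept.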

tumor vasculature = details: Cancer Research 59, 1626 (1999); cited from earlier work
xenograft models = details: Cancer Research 62, 3113, 2002; cited from earlier work

Row | SMILES | GI50 [3] [µM] | minimal effective concentration [2] [µM] | Tubulin Assay: percent inhibition at 10 μM based on 30 minute data (bovine tubulin) [%] | further results
1 | O=C(Nc1ccncc1)C(=O)c1cn(Cc2ccc(Cl)cc2)c2ccccc12 [Compound D-24851] | – | – | – | antitumor activity in vivo [1]: exert antitumor activity in vivo; neurotoxicity [1]: lacks neurotoxicity; efficacy toward MDR cells (MDR cells): shows efficacy toward MDR cells
2 | COc1ccc(Nc2nnc(-c3cccnc3Nc3cc(OC)cc(OC)c3)[nH]2)cc1 [Compound 3, (3,5-Dimethoxy-phenyl)-{3-[5-(4-methoxy-phenylamino)-4H-[1,2,4]triazol-3-yl]-pyridin-2-yl}-amine] | 2.5 | 10 | 72 | –
3 | COc1cccc(Nc2nnc(-c3cccnc3Nc3ccc4c(c3)OCO4)[nH]2)c1 [Compound 7, Benzo[1,3]dioxol-5-yl-{3-[5-(3-methoxy-phenylamino)-4H-[1,2,4]triazol-3-yl]-pyridin-2-yl}-amine] | 15 | 10 | 47 | –
4 | COc1ccc(/C=C\c2cc(OC)c(OC)c(OC)c2)cc1OP(=O)(O)O [Combretastatin A-4 phosphate] | – | – | – | effect on tumor vasculature and necrosis in mouse tumor models (tumor vasculature): change endothelial cell morphology, shut down tumor vasculature, and induce tumor necrosis
5 | COc1cccc(-c2nnc(-c3cccnc3NCc3cccnc3)[nH]2)c1 [Compound 85, {3-[5-(3-Methoxy-phenyl)-4H-[1,2,4]triazol-3-yl]-pyridin-2-yl}-pyridin-3-ylmethyl-amine] | 8 | 1 | 61 | –
6 | COc1ccc(OC)c(Nc2nnc(-c3cccnc3NCc3ccc4c(c3)OCO4)[nH]2)c1 [Compound 14, Benzo[1,3]dioxol-5-ylmethyl-{3-[5-(2,5-dimethoxy-phenylamino)-4H-[1,2,4]triazol-3-yl]-pyridin-2-yl}-amine] | 20 | 100 | 24 | –
7 | COc1cc(Nc2nnc(-c3cccnc3Nc3cc(OC)cc(OC)c3)[nH]2)cc(OC)c1 [Compound 1, (3,5-Dimethoxy-phenyl)-{3-[5-(3,5-dimethoxy-phenylamino)-4H-[1,2,4]triazol-3-yl]-pyridin-2-yl}-amine] | 5.5 | 0.1 | 45 | –
8 | COc1ccc(Nc2nnc(-c3cccnc3NCc3ccc4c(c3)OCO4)[nH]2)cc1 [Compound 54, Benzo[1,3]dioxol-5-ylmethyl-{3-[5-(4-methoxy-phenylamino)-4H-[1,2,4]triazol-3-yl]-pyridin-2-yl}-amine] | 7.5 | 10 | 38 | –
9 | CN(C)c1ccc(Nc2nnc(-c3cccnc3Nc3ccc4cn[nH]c4c3)[nH]2)cc1 [Compound 21, (1H-Indazol-6-yl)-{3-[5-(4-dimethylamino-phenylamino)-4H-[1,2,4]triazol-3-yl]-pyridin-2-yl}-amine] | 40 | 100 | 24 | –
10 | c1ccc(-c2nnc(Nc3ccc4c(c3)OCCO4)o2)c(NCc2ccncc2)c1 [Compound 215, (2,3-Dihydro-benzo[1,4]dioxin-6-yl)-(5-{2-[(pyridin-4-ylmethyl)-amino]-phenyl}-[1,3,4]oxadiazol-2-yl)-amine] | 10 | 0.01 | 100 | –
11 | COc1ccc2[nH]c(C(=O)c3ccccc3)cc2c1 [Compound D64131] | – | – | – | efficacy in xenograft models (xenograft models): efficacious in xenograft models; oral activity (xenograft models): orally active; toxicity (xenograft models): no signs of toxicity
12 | CS(=O)(=O)c1ccc(-c2nnc(-c3cccnc3NCc3ccc4c(c3)OCO4)[nH]2)cc1 [Compound 77, Benzo[1,3]dioxol-5-ylmethyl-{3-[5-(4-methanesulfonyl-phenyl)-4H-[1,2,4]triazol-3-yl]-pyridin-2-yl}-amine] | 4.5 | 10 | 28 | –

Second part, led by results:

Row | GI50 [3] [µM] | SMILES | minimal effective concentration [2] [µM] | Tubulin Assay: percent inhibition at 10 μM based on 30 minute data (bovine tubulin) [%] | further results
13 | 1.5 | COc1cccc(Nc2nnc(-c3cccnc3Nc3ccc4cn[nH]c4c3)[nH]2)c1 [Compound 18, (1H-Indazol-6-yl)-{3-[5-(3-methoxy-phenylamino)-4H-[1,2,4]triazol-3-yl]-pyridin-2-yl}-amine] | 1 | 70 | –
14 | 0.2 | COc1cc(CNc2ncccc2-c2nnc(Nc3ccc4c(c3)OCO4)o2)cc(OC)c1 [Compound 182, {3-[5-(Benzo[1,3]dioxol-5-ylamino)-[1,3,4]oxadiazol-2-yl]-pyridin-2-yl}-(3,5-dimethoxy-benzyl)-amine] | 1 | 84 | –
15 | 0.9 | COc1ccc(OC)c(Nc2nnc(-c3cccnc3Nc3ccc4cn[nH]c4c3)[nH]2)c1 [Compound 20, {3-[5-(2,5-Dimethoxy-phenylamino)-4H-[1,2,4]triazol-3-yl]-pyridin-2-yl}-(1H-indazol-6-yl)-amine] | 10 | 44 | –
16 | 0.06 | C#Cc1ccc(-c2nnc(-c3ccccc3NCc3ccncc3)[nH]2)cc1 [Compound 131, {2-[5-(4-Ethynyl-phenyl)-4H-[1,2,4]triazol-3-yl]-phenyl}-pyridin-4-ylmethyl-amine] | 0.1 | 46 | –
17 | 0.2 | CN(C)c1ccc(Nc2nnc(-c3cccnc3NCc3ccc4c(c3)OCO4)[nH]2)cc1 [Compound 15, Benzo[1,3]dioxol-5-ylmethyl-{3-[5-(4-dimethylamino-phenylamino)-4H-[1,2,4]triazol-3-yl]-pyridin-2-yl}-amine] | 100 | 20 | –
18 | 2 | COc1cccc(Nc2nnc(-c3ccccc3NCc3ccncc3)o2)c1 [Compound 228, (3-Methoxy-phenyl)-(5-{2-[(pyridin-4-ylmethyl)-amino]-phenyl}-[1,3,4]oxadiazol-2-yl)-amine] | 10 | 57 | –
19 | 0.04 | COc1cc(Nc2ncccc2-c2nnc(Nc3ccc4c(c3)OCO4)o2)cc(OC)c1 [Compound 177, {3-[5-(Benzo[1,3]dioxol-5-ylamino)-[1,3,4]oxadiazol-2-yl]-pyridin-2-yl}-(3,5-dimethoxy-phenyl)-amine] | 0.01 | 45 | –
20 | 1.5 | c1ccc(-c2nnc(Nc3ccc4c(c3)OCCO4)o2)c(NCc2cn[nH]c2)c1 [Compound 223, (2,3-Dihydro-benzo[1,4]dioxin-6-yl)-(5-{2-[(1H-pyrazol-4-ylmethyl)-amino]-phenyl}-[1,3,4]oxadiazol-2-yl)-amine] | 0.1 | 84 | –
21 | 0.5 | COc1cccc(Nc2nnc(-c3cccnc3NCc3cccnc3)[nH]2)c1 [Compound 25, {3-[5-(3-Methoxy-phenylamino)-4H-[1,2,4]triazol-3-yl]-pyridin-2-yl}-pyridin-3-ylmethyl-amine] | 1 | 77 | –
